“And” between values parts separate entries of the source, which are not always exact repeats. Identical values can stand only once. “Also recorded” adds a separate entry of the source. Like-named read-outs stand apart in the source and are kept apart here.
Assays:
[1] = system: T. gondii β-gal tachyzoites; design: method as in PMID 32347622, doi:10.3390/inorganics9080059, PMID 34144354; conditions: previously reported, ref [93],[96],[111], cited from earlier work
[2] = system: human foreskin fibroblasts (HFF); conditions: cited from earlier work
[3] = Stability in DMSO-d6 by 1H NMR (5 min vs 100 days); format: physicochemical; conditions: 25 °C, 5 min and 100 days after sample preparation, stored at 0-5 °C in the dark
Method: For the biological activity evaluation, 1 mM stock solutions of all compounds were prepared in dimethylsulfoxide (DMSO).
The conjugates are well soluble in DMSO, solvent used to prepare standard solutions for biological […]
To assess their stability, compounds 4, 24, 28, 33 and 39 were dissolved in DMSO-d6, and two 1H NMR spectra were recorded at 25°C 5 min and at least 100 days after sample preparation (Figures S1 and S2).
Between the two experiments, the samples were stored at 0°C. For all compounds, there are no significant changes between the spectrum recorded after 5 min and the spectrum recorded after at least […]
further biological tests.
Figure S1. […]

[4] = system: T. gondii β-gal tachyzoites; conditions: cited from earlier work
[5] = system: T. gondii β-gal tachyzoites; experiment: Primary screening: T. gondii β-gal proliferation in HFF monolayers at 0.1 and 1 µM (CPRG readout); format: cell-based, Toxoplasma gondii; conditions: tachyzoites cultured in HFF, 72 h, relative to DMSO control
Method: (§1) The screening cascade for the compounds was described in former studies. All compounds were prepared as 1 mM stock solutions from powder, in dimethyl sulfoxide (DMSO, Sigma, St. Louis, MO, USA). For in vitro activity and cytotoxicity assays, HFF were seeded at 5 × 10^3/well and allowed to grow to confluence in phenol-red free culture medium at 37 °C and 5% CO2. T. gondii tachyzoites were released from host cells, and HFF monolayers were infected with freshly isolated parasites (1 × 10^3/well), and compounds were added concomitantly with infection.
In the primary screening, HFF monolayers infected with T. gondii β-gal were treated with 0.1 and 1 µM of each compound, or the corresponding concentration of DMSO (0.01 or 0.1%, respectively) as controls and were incubated for 72 h at 37 °C/5% CO2 as previously described.
(§2) To measure the activity of the tested compound on T. gondii β-gal parasites, after a period of 72 h of culture at 37 °C/5% CO2, the culture medium was aspirated, and cells were permeabilized by adding 90 μL PBS (phosphate buffered saline) with 0.05% Triton X-100. Next, 10 μL of 5 mM chlorophenolred-β-D-galactopyranoside (CPRG; Roche Diagnostics, Rotkreuz, Switzerland, substrate for the β-galactosidase) in PBS were added. Release of chlorophenol red was measured at 570 nm using an EnSpire® multimode plate reader (PerkinElmer, Inc., Waltham, MA, USA). A 100% proliferation of T. gondii β-gal was assigned to control parasites treated only with DMSO. For the primary screening at 0.1 and 1 μM, the activity was measured as the release of chlorophenol red over time and was calculated as percentage from the respective DMSO treated control, which represented 100% of T. gondii β-gal growth.

[6] = system: T. gondii β-gal tachyzoites; experiment: Dose-response study (IC50) against T. gondii β-gal tachyzoites; format: cell-based, Toxoplasma gondii; conditions: 8 serial concentrations 0.007-1 µM, 72 h
Method: as §1
For the dose-response study (IC50 values), measurements for T. gondii β-gal were performed. The selected compounds were added concomitantly with infection in 8 serial concentrations 0.007, 0.01, 0.03, 0.06, 0.12, 0.25, 0.5, and 1 μM.
as §2
For the IC50 assays, the activity measured as the release of chlorophenol red over time was proportional to the number of live parasites down to 50 per well as determined in pilot assays. IC50 values were calculated after the logit-log-transformation of relative growth and subsequent regression analysis. All calculations were performed using the corresponding software tool contained in the Excel software package (Microsoft, Redmond, WA, USA).

[7] = system: human foreskin fibroblasts (HFF); experiment: Cytotoxicity in non-infected HFF by alamarBlue assay; format: cell-based
Method: as §1
(§3) Cytotoxicity assays using uninfected confluent HFF host cells were performed by the alamarBlue assay as previously reported. Confluent HFF monolayers in 96 well-plates were exposed to 0.1, 1, and 2.5 μM of each compound. Non-treated HFF as well as DMSO controls (0.01%, 0.1%, and 0.25%) were included. After 72 h of incubation at 37 °C/5% CO2, the medium was removed, and the plates were washed once with PBS. Resazurin suspended in PBS to a final concentration of 0.01 g/L was added to each well (200 μL/well). Fluorescence was measured at excitation wavelength 530 nm and emission wavelength […] using an EnSpire® multimode plate reader (PerkinElmer, Inc, Waltham, MA, USA). The cytotoxicity values were calculated as percentage of the respective DMSO control, which represented 100% of HFF viability.

[8] = system: T. brucei bloodstream forms; design: method as in PMID 34639127; conditions: ref [126]; cited from earlier work
[9] = Cytotoxicity in non-infected HFF by alamarBlue assay; format: cell-based, human; conditions: human, non-infected HFF, 72 h, relative to DMSO control, triplicate
Method: as §1, §3

[10] = 0.1 µM, non-infected HFF, previously reported, ref [93],[96],[111]
[11] = 1 µM, non-infected HFF, previously reported, ref [93],[96],[111]
[12] = 0.1 µM, non-infected HFF, 72 h, relative to DMSO control, triplicate
[13] = 2.5 µM, control 0.25% DMSO = 100%, six replicates
[14] = 1 µM, non-infected HFF, 72 h, relative to DMSO control, triplicate

SMILES | Stability in DMSO-d6 (1H NMR spectra) [3] | T. gondii β-gal Growth (%) ([5]; 0.1 µM) | HFF Viability (%) [7, 12] | T. gondii β-gal Growth (%) ([5]; 1 µM) | viability at 72 h, 0.1 µM [9] | viability at 72 h, 1 µM [9] | other results
CC(C)(C)c1ccc(C[S+]2[Ru-]3[S+](Cc4ccc(C(C)(C)C)cc4)[Ru-]2[S+]3c2ccc(CC(=O)O)cc2)cc1.Cc1ccc(C(C)C)cc1.Cc1ccc(C(C)C)cc1.[Cl-] (centres unmarked) [Compound 3] |  |  |  |  |  |  | T. gondii β-gal Growth (%) ([1]; 0.1 µM): 114 ± 2%; T. gondii β-gal Growth (%) ([1]; 1 µM): 110 ± 2%; HFF Viability (%) [2, 10]: 91 ± 4%; HFF Viability (%) [2, 11]: 73 ± 1%; HFF viability at 2.5 µM ([2]; 2.5 µM, intermediates previously reported, not in Table 2, ref [93],[111]): did not affect HFF viability
CC(C)(C)c1ccc(C[S+]2[Ru-]3[S+](Cc4ccc(C(C)(C)C)cc4)[Ru-]2[S+]3c2ccccc2CO)cc1.Cc1ccc(C(C)C)cc1.Cc1ccc(C(C)C)cc1.[Cl-] (centres unmarked) [Compound 4] | very good stability; also recorded: no modifications |  |  |  |  |  | T. gondii β-gal Growth (%) ([1]; 0.1 µM): 2 ± 0%; T. gondii β-gal Growth (%) ([1]; 1 µM): 1 ± 0%; IC50 ([4]; compound reported earlier, ref [96]): 0.038 µM; HFF Viability (%) [2, 10]: 80 ± 1%; HFF Viability (%) [2, 11]: 69 ± 6%; HFF Viability (%) ([2]; 2.5 µM, compound reported earlier, ref [96]): 4%
C#CCNC(=O)Cc1ccc([S+]2[Ru-]3[S+](Cc4ccc(C(C)(C)C)cc4)[Ru-]2[S+]3Cc2ccc(C(C)(C)C)cc2)cc1.Cc1ccc(C(C)C)cc1.Cc1ccc(C(C)C)cc1.[Cl-] (centres unmarked) [Compound 8] |  |  |  |  |  |  | T. gondii β-gal Growth (%) ([1]; 0.1 µM): 52 ± 13%; T. gondii β-gal Growth (%) ([1]; 1 µM): 3 ± 1%
CC(C)(C)c1ccc(C[S+]2[Ru-]3[S+](Cc4ccc(C(C)(C)C)cc4)[Ru-]2[S+]3c2ccc(CC(=O)OCCn3cnc4c(N)ncnc43)cc2)cc1.Cc1ccc(C(C)C)cc1.Cc1ccc(C(C)C)cc1.[Cl-] (centres unmarked) [Compound 14] |  | 12 ± 1% | 95 ± 11% |  |  |  | IC50 [6]: 0.059 µM; HFF Viability (%) [7, 13]: low toxicity and medium toxicity and 76%; Activity against T. brucei bloodstream forms [8]: highly active
C#CCn1ccc(=O)[nH]c1=O.C#CCn1ccc(=O)[nH]c1=O [Compound 15] |  | 109 ± 5% |  | 83 ± 0% | 107 ± 2% | 96 ± 2% | 
C#CCn1cc(C)c(=O)[nH]c1=O.C#CCn1cc(C)c(=O)[nH]c1=O [Compound 16] |  | 96 ± 8% |  | 95 ± 6% | 104 ± 2% | 103 ± 3% | 
C#CCn1ccc(N)nc1=O.C#CCn1ccc(N)nc1=O [Compound 17] |  | 111 ± 5% |  | 90 ± 7% | 96 ± 1% | 93 ± 1% | 
C#CCn1cnc2c(N)ncnc21.C#CCn1cnc2c(N)ncnc21 [Compound 18] |  | 117 ± 4% |  | 91 ± 6% | 96 ± 2% | 89 ± 3% | 
Cc1ccc(C(C)C)cc1.Cc1ccc(C(C)C)cc1.Cc1cn(Cc2cn(-c3ccc([S]4[Ru]5[S](Cc6ccc(C(C)(C)C)cc6)[Ru+]4[S]5Cc4ccc(C(C)(C)C)cc4)cc3)nn2)c(=O)[nH]c1=O.[Cl-] [Compound 24] | very good stability; also recorded: no modifications | 56 ± 15% | 98 ± 10% |  |  |  | IC50 [6]: 0.357 µM; HFF Viability (%) [7, 14]: 96 ± 4%; HFF Viability (%) [7, 13]: 85%
[N-]=[N+]=NCc1cc(=O)[nH]c(=O)[nH]1 [Compound 27, 6-(azidomethyl)uracil] |  | 101 ± 5% |  | 99 ± 11% | 98 ± 5% | 102 ± 3% | 
NC(=O)CCCc1cn(Cc2cc(=O)[nH]c(=O)[nH]2)nn1 [Compound 28] | very good stability; also recorded: no modifications |  | 101 ± 1% |  |  |  | 
[N-]=[N+]=NCCn1cnc2c(N)ncnc21 [Compound 32] |  | 103 ± 8% |  | 94 ± 2% | 104 ± 2% | 103 ± 3% | 
CNc1cn(CCn2cnc3c(N)ncnc32)nn1 [Compound 33] | very good stability; also recorded: no modifications | 94 ± 11% | 84 ± 6% | 83 ± 11% |  |  | HFF Viability (%) [7, 14]: 71 ± 3%
CC(C)(C)c1ccc(C[S]2[Ru]3[S](Cc4ccc(C(C)(C)C)cc4)[Ru+]2[S]3c2ccc(-n3cc(-c4ccccn4)nn3)cc2)cc1.Cc1ccc(C(C)C)cc1.Cc1ccc(C(C)C)cc1.[Cl-] [Compound 39] | very good stability; also recorded: no modifications | 14 ± 1% | 94 ± 2% | 0 ± 0% |  |  | IC50 [6]: 0.075 µM; HFF Viability (%) [7, 14]: 90 ± 1%; HFF Viability (%) [7, 13]: highly toxic and 1%
CCc1nc(N)nc(N)c1-c1ccc(Cl)cc1 [Pyrimethamine, reference compound] |  |  |  |  |  |  | IC50 ([4]; reference compound, ref [93]): 0.326 µM; HFF Viability (%) ([2]; 2.5 µM, reference compound, ref [93]): 99%
